Measurements published in publication PMC6514978, “Synthesis, Antibacterial Activities, Mode of Action and Acute Toxicity Studies of New Oxazolidinone-Fluoroquinolone Hybrids” (Molecules, 2019).
≈ marks a conversion by molar mass, not a printed value.

What was measured:
MRSA (13B262) = assay: MIC, broth microdilution (CLSI), clinical isolate; assay type: cell-based; conditions: Staphylococcus aureus
Excerpt: (§1) 6 standard strains and 3 clinical isolates were used to the preliminary evaluation of in vitro antibacterial activities of oxazolidinone-fluoroquinolone hybrids. For the further evaluation of hybrids OBP-4 and OBP-5, 263 clinical isolates including S. aureus (46), S. haemolyticus(32), S. epidermidis (10), E. faecalis (72), E. faecium (47), S. pneumoniae (13), H. parasuis (34), S. suis (9), and 8 resistant strains including MRSA, MRSE, CIP-resistant S. aureus and S. haemolyticus, VAN and quinolone-resistant S. pneumoniae, LZD-resistant E. faecalis, LZD/VAN and quinolone-resistant E. faecium were collected and tested.
(§2) Susceptibility testing of oxazolidinone-fluoroquinolone hybrids against various bacteria was performed by the broth microdilution method as outlined by the Clinical and Laboratory Standards Institute (CLSI). Three types of media, including cation-adjusted Mueller Hinton broth, Haemophilus Test Medium and cation-adjusted Mueller Hinton broth that contained 3%–5% lysed horse blood, were used to culture the corresponding bacteria. All compounds including comparator drugs were dissolved in an appropriate solvent at a concentration of 2.048 mg/mL and then serially diluted two-fold to provide the required concentrations. A final inoculum of 5 × 10^5 CFU/mL was used and plates were read after incubation for 16–24 h at 35 °C. […] Standard quality control strains (ATCC) were included throughout. Each determination was repeated in triplicate.

[1] = system: S. agalactiae^R (13B317), levofloxacin-resistant S. agalactiae; assay: MIC, broth microdilution (CLSI), clinical isolate; assay type: cell-based; conditions: Streptococcus agalactiae; levofloxacin-resistant S. agalactiae (13B317)
Excerpt: as §1, §2

VRE (13B330) = assay: MIC, broth microdilution (CLSI), clinical isolate; assay type: cell-based, vancomycin-resistant enterococcus; conditions: Enterococcus
Excerpt: as §1, §2

E. coli (ATCC25922) = assay: MIC, broth microdilution (CLSI), standard strain; assay type: cell-based; conditions: Escherichia coli; E. coli (ATCC25922); read-out: MIC
Excerpt: as §1, §2

E. faecalis (ATCC29212) = assay: MIC, broth microdilution (CLSI), standard strain; assay type: cell-based; conditions: Enterococcus faecalis; E. faecalis (ATCC29212); read-out: MIC
Excerpt: as §1, §2

[2] = system: H. influenzae (ATCC49247); assay: MIC, broth microdilution (CLSI), standard strain; assay type: cell-based; conditions: Haemophilus influenzae
Excerpt: as §1, §2

[3] = system: P. Aeruginosa (ATCC27853); assay: MIC, broth microdilution (CLSI), standard strain; assay type: cell-based; conditions: Pseudomonas aeruginosa; P. Aeruginosa (ATCC27853); read-out: MIC
Excerpt: as §1, §2

S. aureus (ATCC29213) = assay: MIC, broth microdilution (CLSI), standard strain; assay type: cell-based; conditions: Staphylococcus aureus
Excerpt: as §1, §2

[4] = system: S. pneumoniae (ATCC49619); assay: MIC, broth microdilution (CLSI), standard strain; assay type: cell-based; conditions: Streptococcus pneumoniae
Excerpt: as §1, §2

[5] = system: S. aureus (46) clinical isolates; assay: Susceptibility of clinical isolates (MIC); assay type: cell-based, Staphylococcus aureus; conditions: Staphylococcus aureus, S. aureus, 46 clinical isolates
Description: as §2, with “All compounds including comparator drugs were dissolved in an appropriate solvent at a concentration of 2.048 mg/mL and then serially diluted two-fold to provide the required concentrations.” left out

[6] = system: S. haemolyticus (32) clinical isolates; assay: Susceptibility of clinical isolates (MIC); assay type: cell-based, Staphylococcus haemolyticus; conditions: Staphylococcus haemolyticus, S. haemolyticus, 32 clinical isolates
Description: as §2, with “All compounds including comparator drugs were dissolved in an appropriate solvent at a concentration of 2.048 mg/mL and then serially diluted two-fold to provide the required concentrations.” left out

[7] = system: S. epidermidis (10) clinical isolates; assay: Susceptibility of clinical isolates (MIC); assay type: cell-based, Staphylococcus epidermidis; conditions: Staphylococcus epidermidis, S. epidermidis, 10 clinical isolates
Description: as §2, with “All compounds including comparator drugs were dissolved in an appropriate solvent at a concentration of 2.048 mg/mL and then serially diluted two-fold to provide the required concentrations.” left out

[8] = system: S. suis (9) clinical isolates; assay: Susceptibility of clinical isolates (MIC); assay type: cell-based, Streptococcus suis; conditions: Streptococcus suis, S. suis, 9 clinical isolates
Description: as §2, with “All compounds including comparator drugs were dissolved in an appropriate solvent at a concentration of 2.048 mg/mL and then serially diluted two-fold to provide the required concentrations.” left out

[9] = system: S. pneumoniae (13) clinical isolates; assay: Susceptibility of clinical isolates (MIC); assay type: cell-based, Streptococcus pneumoniae; conditions: Streptococcus pneumoniae, S. pneumoniae, 13 clinical isolates
Description: as §2, with “All compounds including comparator drugs were dissolved in an appropriate solvent at a concentration of 2.048 mg/mL and then serially diluted two-fold to provide the required concentrations.” left out

[10] = system: E. faecalis (72) clinical isolates; assay: Susceptibility of clinical isolates (MIC); assay type: cell-based, Enterococcus faecalis; conditions: E. faecalis, 72 clinical isolates
Description: as §2, with “All compounds including comparator drugs were dissolved in an appropriate solvent at a concentration of 2.048 mg/mL and then serially diluted two-fold to provide the required concentrations.” left out

[11] = system: E. faecium (47) clinical isolates; assay: Susceptibility of clinical isolates (MIC); assay type: cell-based, Enterococcus faecium; conditions: Enterococcus faecium, E. faecium, 47 clinical isolates
Description: as §2, with “All compounds including comparator drugs were dissolved in an appropriate solvent at a concentration of 2.048 mg/mL and then serially diluted two-fold to provide the required concentrations.” left out

[12] = system: H. parasuis (34) clinical isolates; assay: Susceptibility of clinical isolates (MIC); assay type: cell-based, Haemophilus parasuis; conditions: H. parasuis, 34 clinical isolates
Description: as §2, with “All compounds including comparator drugs were dissolved in an appropriate solvent at a concentration of 2.048 mg/mL and then serially diluted two-fold to provide the required concentrations.” left out

MRSE = assay: MIC against drug-resistant strain; assay type: cell-based, S. epidermidis; conditions: Staphylococcus epidermidis, read-out: MIC
Description: (§3) 6 standard strains and 3 clinical isolates were used to the preliminary evaluation of in vitro antibacterial activities of oxazolidinone-fluoroquinolone hybrids.
as §2, with “All compounds including comparator drugs were dissolved in an appropriate solvent at a concentration of 2.048 mg/mL and then serially diluted two-fold to provide the required concentrations.” left out

[13] = system: LZD-resistant E. faecalis; assay: microbe, parasite or virus in culture; assay type: cell-based; conditions: Enterococcus faecalis
Description: as §3
as §2, with “All compounds including comparator drugs were dissolved in an appropriate solvent at a concentration of 2.048 mg/mL and then serially diluted two-fold to provide the required concentrations.” left out

CIP-resistant S. aureus = assay: MIC against drug-resistant strain; assay type: cell-based; conditions: Staphylococcus aureus; S. aureus, CIP-resistant; read-out: MIC
Description: as §3
as §2, with “All compounds including comparator drugs were dissolved in an appropriate solvent at a concentration of 2.048 mg/mL and then serially diluted two-fold to provide the required concentrations.” left out

[14] = system: CIP-resistant S. haemolyticus; assay: MIC against drug-resistant strain; assay type: cell-based; conditions: Staphylococcus haemolyticus; S. haemolyticus, CIP-resistant; read-out: MIC
Description: as §3
as §2, with “All compounds including comparator drugs were dissolved in an appropriate solvent at a concentration of 2.048 mg/mL and then serially diluted two-fold to provide the required concentrations.” left out

[15] = system: LZD and quinolone-resistant E. faecium; assay: MIC against drug-resistant strain; assay type: cell-based; conditions: Enterococcus faecium; E. faecium, LZD and quinolone-resistant; read-out: MIC
Description: as §3
as §2, with “All compounds including comparator drugs were dissolved in an appropriate solvent at a concentration of 2.048 mg/mL and then serially diluted two-fold to provide the required concentrations.” left out

MRSA = assay: MIC against drug-resistant strain; assay type: cell-based; conditions: Staphylococcus aureus, read-out: MIC
Description: as §3
as §2, with “All compounds including comparator drugs were dissolved in an appropriate solvent at a concentration of 2.048 mg/mL and then serially diluted two-fold to provide the required concentrations.” left out

[16] = system: VAN and quinolone-resistant E. faecium; assay: MIC against drug-resistant strain; assay type: cell-based; conditions: Enterococcus faecium; E. faecium, VAN and quinolone-resistant; read-out: MIC
Description: as §3
as §2, with “All compounds including comparator drugs were dissolved in an appropriate solvent at a concentration of 2.048 mg/mL and then serially diluted two-fold to provide the required concentrations.” left out

[17] = system: VAN and quinolone-resistant S. pneumoniae; assay: MIC against drug-resistant strain; assay type: cell-based; conditions: Streptococcus pneumoniae; S. pneumoniae, VAN and quinolone-resistant; read-out: MIC
Description: as §3
as §2, with “All compounds including comparator drugs were dissolved in an appropriate solvent at a concentration of 2.048 mg/mL and then serially diluted two-fold to provide the required concentrations.” left out

Compound: C[C@H]1COc2c(N3CCC(O)(COc4ccc(N5C[C@H](CO)OC5=O)cc4F)CC3)c(F)c(N)c3c(=O)c(C(=O)O)cn1c23 [OBP-3]
- MIC (MRSA (13B262)): 2 µg/mL (≈ 3.24 µM)
- MIC [1]: 0.5 µg/mL (≈ 0.811 µM)
- MIC (VRE (13B330)): 2 µg/mL (≈ 3.24 µM)
- MIC (E. coli (ATCC25922)): 64 µg/mL (≈ 104 µM)
- MIC (E. faecalis (ATCC29212)): 1 µg/mL (≈ 1.62 µM)
- MIC [2]: 2 µg/mL (≈ 3.24 µM)
- MIC [3]: 128 µg/mL (≈ 208 µM)
- MIC (S. aureus (ATCC29213)): 2 µg/mL (≈ 3.24 µM)
- MIC [4]: 0.5 µg/mL (≈ 0.811 µM)

Compound: CCN1CCN(c2cc3c(cc2F)c(=O)c(C(=O)O)cn3C2CC2)CC1 [ENR, enrofloxacin]
- MIC50 ([5]; read-out: MIC50): 2 µg/mL (≈ 5.56 µM)
- MIC90 ([5]; read-out: MIC90): 4 µg/mL (≈ 11.1 µM)
- MIC ([5]; read-out: MIC Range): 0.0625 to 8 µg/mL (≈ 0.174 to 22.3 µM)
- MIC50 ([6]; read-out: MIC50): ≤ 0.0625 µg/mL
- MIC90 ([6]; read-out: MIC90): 0.5 µg/mL (≈ 1.39 µM)
- MIC ([6]; read-out: MIC Range): 0.0625 to 8 µg/mL (≈ 0.174 to 22.3 µM)
- MIC50 ([7]; read-out: MIC50): 2 µg/mL (≈ 5.56 µM)
- MIC90 ([7]; read-out: MIC90): 4 µg/mL (≈ 11.1 µM)
- MIC ([7]; read-out: MIC Range): 0.125 to 4 µg/mL (≈ 0.348 to 11.1 µM)
- MIC50 ([8]; read-out: MIC50): 0.25 µg/mL (≈ 0.696 µM)
- MIC90 ([8]; read-out: MIC90): 4 µg/mL (≈ 11.1 µM)
- MIC ([8]; read-out: MIC Range): 0.0625 to 8 µg/mL (≈ 0.174 to 22.3 µM)
- MIC50 ([9]; read-out: MIC50): 32 µg/mL (≈ 89 µM)
- MIC90 ([9]; read-out: MIC90): > 32 µg/mL
- MIC Range [10]: ≤0.0625 to 2 µg/mL
- MIC50 ([10]; Enterococcus faecalis): 0.5 µg/mL (≈ 1.39 µM)
- MIC90 ([10]; Enterococcus faecalis): 0.5 µg/mL (≈ 1.39 µM)
- MIC50 ([11]; read-out: MIC50): 2 µg/mL (≈ 5.56 µM)
- MIC90 ([11]; read-out: MIC90): 32 µg/mL (≈ 89 µM)
- MIC50 ([12]; Glaesserella parasuis, read-out: MIC50): ≤ 0.0625 µg/mL
- MIC90 ([12]; Glaesserella parasuis, read-out: MIC90): 1 µg/mL (≈ 2.78 µM)
- MIC Range [12]: ≤0.0625 to 1 µg/mL
- MIC (MRSE): ≤ 0.0625 µg/mL
- MIC [13]: 1 µg/mL (≈ 2.78 µM)
- MIC (CIP-resistant S. aureus): 2 µg/mL (≈ 5.56 µM)
- MIC [14]: 8 µg/mL (≈ 22.3 µM)
- MIC [15]: > 32 µg/mL
- MIC (MRSA): 0.25 µg/mL (≈ 0.696 µM)
- MIC [16]: > 32 µg/mL
- MIC [17]: > 32 µg/mL

Compound: O=C(O)c1cn(C2CC2)c2cc(N3CC4C(C3)C4Nc3ccc(N4C[C@H](CO)OC4=O)cc3F)c(F)cc2c1=O (stereo partly drawn) [OBP-7]
- MIC (MRSA (13B262)): 128 µg/mL (≈ 232 µM)
- MIC [1]: 4 µg/mL (≈ 7.24 µM)
- MIC (VRE (13B330)): 128 µg/mL (≈ 232 µM)
- MIC (E. coli (ATCC25922)): 0.5 µg/mL (≈ 0.905 µM)
- MIC (E. faecalis (ATCC29212)): 1 µg/mL (≈ 1.81 µM)
- MIC [2]: 0.031 µg/mL (≈ 0.0561 µM)
- MIC [3]: 64 µg/mL (≈ 116 µM)
- MIC (S. aureus (ATCC29213)): 0.25 µg/mL (≈ 0.452 µM)
- MIC [4]: 2 µg/mL (≈ 3.62 µM)

Compound: C[C@H]1COc2c(N3CCC(O)(COc4ccc(N5C[C@H](CO)OC5=O)cc4F)CC3)c(F)cc3c(=O)c(C(=O)O)cn1c23 [OBP-2]
- MIC (MRSA (13B262)): 1 µg/mL (≈ 1.66 µM)
- MIC [1]: 0.25 µg/mL (≈ 0.416 µM)
- MIC (VRE (13B330)): 1 µg/mL (≈ 1.66 µM)
- MIC (E. coli (ATCC25922)): 4 µg/mL (≈ 6.65 µM)
- MIC (E. faecalis (ATCC29212)): 1 µg/mL (≈ 1.66 µM)
- MIC [2]: 0.5 µg/mL (≈ 0.831 µM)
- MIC [3]: 64 µg/mL (≈ 106 µM)
- MIC (S. aureus (ATCC29213)): 0.25 µg/mL (≈ 0.416 µM)
- MIC [4]: 0.25 µg/mL (≈ 0.416 µM)
